The text below walks through data of publication PMC12360161, “Identifying 14-3-3 interactome binding sites with deep learning” (Digital Discovery, 2025).

In assay [1] the target is T1, full-length (FL) human 14-3-3γ protein (Homo sapiens, UniProt P61981).
T1 construct: The full-length (FL) human 14-3-3γ protein was expressed from a pPROEX plasmid; His6; made in house; host or cells: E. coli BL21(DE3)
T1 sequence (P61981 1-247): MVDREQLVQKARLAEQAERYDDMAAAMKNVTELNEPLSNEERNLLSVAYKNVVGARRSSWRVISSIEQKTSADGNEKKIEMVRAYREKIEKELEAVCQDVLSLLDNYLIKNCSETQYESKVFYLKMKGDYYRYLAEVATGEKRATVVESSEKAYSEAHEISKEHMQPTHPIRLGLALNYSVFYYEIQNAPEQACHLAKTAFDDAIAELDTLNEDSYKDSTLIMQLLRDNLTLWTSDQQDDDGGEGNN
The experiment in a line: Fluorescence anisotropy (FA) assay of FAM-labeled peptides binding to 14-3-3γ. The conditions noted are these: for Kd: 14-3-3γ FL dilution series (starting at 500 μM) to 10 nM FAM-labeled peptide, 10 mM HEPES pH 7.4, 150 mM NaCl, 0.1% Tween20, 1 mg/mL BSA, room temperature, Hill fit, mean ± SD; for Binding in the FA assay (in words): 14-3-3γ, 10 nM FAM-labeled peptide. How it is done:
To study the binding of the fluorescently labelled peptides to 14-3-3, Fluorescence Anisotropy (FA) assays were carried out.[23] In the case of binding, tumbling of the peptide with the attached fluorophore will slow down and the emitted light will be polarized. This will lead to a higher anisotropy.[79] For all experiments, 14-3-3γ was used as it was shown in multiple experiments to be the strongest binding variant suitable for experimental screening.[80] The FAM-labeled peptides and the 14-3-3γ FL protein were diluted in buffer (10 mM HEPES pH 7.4, 150 mM NaCl, 0.1% Tween20, 1 mg mL^−1 BSA).
Dilution series of 14-3-3γ proteins (starting at 500 μM) were made to 10 nM of the FAM-labeled peptides in black, round-bottom 384-microwell (Corning) in a final sample volume of 10 μL. Fluorescence anisotropy values were measured using a Tecan Spark Control at room temperature filter set lex: 485 ± 20 nm, lem: 535 ± 25 nm, mirror: Dichroic 510, flashes: 30, integration time: 40 μs, settle time: 1 μs; gain: optimized per peptide, and Z-position: calculated from well. Wells containing only FAM-peptide were used to set as G-factor. The KD values were obtained from fitting the data using Origin 2020 with a Sigmoid Hill1 function (using the Hill equation). Data shown is the average and standard deviation of triplicates. For dose–response curves on a linear scale seep SI Fig. S2.
On the technique in general: In fluorescence polarisation assays a small probe gives low polarisation when free and higher when bound to something large.

In assay [2] the target is T2, full-length (FL) human 14-3-3γ protein (human, UniProt P61981 1-247).
T2 construct: 14-3-3 gamma, human, full length; also called 14-3-3γ FL
T2 sequence (looked up): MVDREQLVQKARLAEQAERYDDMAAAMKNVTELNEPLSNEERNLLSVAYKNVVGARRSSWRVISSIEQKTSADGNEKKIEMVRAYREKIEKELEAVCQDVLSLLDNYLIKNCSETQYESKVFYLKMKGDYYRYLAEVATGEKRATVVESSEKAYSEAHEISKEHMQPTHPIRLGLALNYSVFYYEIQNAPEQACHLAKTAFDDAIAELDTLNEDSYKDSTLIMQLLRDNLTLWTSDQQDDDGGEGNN
The assay is described as follows: fluorescence polarisation; fluorescence anisotropy; dilution series of 14-3-3γ (starting at 500 μM) to 10 nM FAM-labeled peptide; 10 mM HEPES pH 7.4, 150 mM NaCl, 0.1% Tween20, 1 mg/mL BSA; room temperature; Hill fit; triplicates. The following applies: both partners purified.

The target in assay [3] is T2, full-length (FL) human 14-3-3γ protein. Described as above. The conditions noted are these: both partners purified. The source holds these as a separate data set.

Where two headings read alike, the source gives them in different places. Where a SMILES comes first, the peptide text is derived from it. Where no end group is shown, it is not given here. [ ]: non-standard residue; d: D form. The star is where a group is joined. 5FAM = O=C1OC2(c3ccc(O)cc3Oc3cc(O)ccc32)c2ccc(C(=O)*)cc21; pT = C[C@@H](OP(=O)(O)O)[C@H](N)C(=O)O; pS = N[C@@H](COP(=O)(O)O)C(=O)O; Ahx = NCCCCCC(=O)O

For the molecule `CC[C@H](C)[C@H](NC(=O)CNC(=O)[C@H](C)NC(=O)[C@H](CCC(=O)O)NC(=O)[C@H](CCC(=O)O)NC(=O)CCCCCNC(=O)c1ccc2c(c1)C(=O)OC21c2ccc(O)cc2Oc2cc(O)ccc21)C(=O)NCC(=O)N[C@@H](CC(=O)O)C(=O)N[C@H](C(=O)N1CCC[C@H]1C(=O)N[C@@H](CO)C(=O)N[C@@H](CC(C)C)C(=O)N[C@@H](CCC(=O)O)C(=O)N[C@@H](CC(=O)O)C(=O)N[C@@H](CCC(=O)O)C(=O)N[C@@H](C)C(N)=O)[C@@H](C)OP(=O)(O)O` [Peptide 9] ({5FAM-Ahx}-EEAGIGD[pT]PSLEDEA-NH2), in assay [1] (n = 3), the Kd (as a rule, the concentration at which binding is half-saturated) was above 500 µM. The “Binding in the FA assay (in words)” value in assay [1] was “did not bind”.

On to `CSCC[C@H](NC(=O)[C@H](CCCNC(=N)N)NC(=O)[C@H](CCCNC(=N)N)NC(=O)[C@H](CC(C)C)NC(=O)[C@H](CCC(=O)O)NC(=O)[C@H](CCCNC(=N)N)NC(=O)CNC(=O)CCCCCNC(=O)c1ccc2c(c1)C(=O)OC21c2ccc(O)cc2Oc2cc(O)ccc21)C(=O)N[C@@H](COP(=O)(O)O)C(=O)N[C@@H](CC(=O)O)C(=O)N[C@@H](CCC(=O)O)C(=O)N[C@@H](Cc1ccccc1)C(=O)N[C@H](C(=O)N[C@@H](CC(=O)O)C(=O)N[C@@H](CO)C(=O)N[C@@H](Cc1ccccc1)C(N)=O)C(C)C` [Peptide 7] ({5FAM-Ahx}-GRELRRM[pS]DEFVDSF-NH2), for which, in assay [1] (n = 3, read-out: Kd), the dissociation constant (Kd) is above 100 µM.

Take `C[C@H](NC(=O)[C@H](CO)NC(=O)[C@@H]1CCCN1C(=O)[C@H](CO)NC(=O)CNC(=O)[C@H](COP(=O)(O)O)NC(=O)[C@H](CCC(=O)O)NC(=O)[C@H](CO)NC(=O)[C@H](CCCNC(=N)N)NC(=O)[C@H](CCCCN)NC(=O)CNC(=O)[C@@H]1CCCN1C(=O)[C@H](C)NC(=O)CCCCCNC(=O)c1ccc2c(c1)C(=O)OC21c2ccc(O)cc2Oc2cc(O)ccc21)C(=O)NCC(=O)NCC(N)=O` [Peptide 8] ({5FAM-Ahx}-APGKRSE[pS]GSPSAGG-NH2): in assay [1] (n = 3, read-out: Kd), the Kd is above 100 µM.

On to `CC(C)C[C@H](NC(=O)[C@H](CO)NC(=O)[C@H](CC(=O)O)NC(=O)[C@H](CC(=O)O)NC(=O)CNC(=O)[C@H](CC(N)=O)NC(=O)[C@H](COP(=O)(O)O)NC(=O)[C@@H](NC(=O)[C@H](CCCCN)NC(=O)[C@H](CCCNC(=N)N)NC(=O)[C@H](CC(N)=O)NC(=O)[C@H](CC(N)=O)NC(=O)[C@H](CC(N)=O)NC(=O)[C@H](CC(N)=O)NC(=O)CCCCCNC(=O)c1ccc2c(c1)C(=O)OC21c2ccc(O)cc2Oc2cc(O)ccc21)[C@@H](C)O)C(=O)N[C@@H](Cc1ccccc1)C(N)=O` [Peptide 5] ({5FAM-Ahx}-NNNNRKT[pS]NGDDSLF-NH2), for which the dissociation constant (Kd) in assay [1] (n = 3, read-out: Kd) is above 500 µM. Further, the “Binding in the FA assay (in words)” value in assay [1] was “no binding”.

In turn, `CC(C)C[C@H](NC(=O)CCCCCNC(=O)c1ccc2c(c1)C(=O)OC21c2ccc(O)cc2Oc2cc(O)ccc21)C(=O)N[C@@H](Cc1c[nH]cn1)C(=O)N[C@@H](CCC(=O)O)C(=O)N[C@@H](CCC(=O)O)C(=O)N[C@H](C(=O)N1CCC[C@H]1C(=O)N1CCC[C@H]1C(=O)N[C@H](C(=O)N[C@H](C(=O)N[C@@H](CO)C(=O)N[C@@H](CO)C(=O)N[C@@H](CC(=O)O)C(=O)N[C@@H](CO)C(=O)N[C@@H](CCC(=O)O)C(=O)N[C@@H](CCC(=O)O)C(N)=O)[C@@H](C)O)[C@@H](C)OP(=O)(O)O)[C@@H](C)O` [Peptide 10] ({5FAM-Ahx}-LHEETPP[pT]TSSDSEE-NH2) registered a dissociation constant (Kd) in assay [1] (n = 3) above 500 µM. In assay [1], the “Binding in the FA assay (in words)” value is given as “did not bind”.

B1: Tau-pS324 peptide (peptide)
chain: KVTSKCG[pS]LGNIHHK
Take B1: in assay [2], the equilibrium dissociation constant (Kd) is above 100 µM.

B2: Tau pS198 peptide (peptide 4), FAM-labelled (peptide)
peptide: {5FAM-Ahx}-SGDRSGY[pS]SPGSPGT-NH2
SMILES: C[C@@H](O)[C@H](NC(=O)CNC(=O)[C@@H]1CCCN1C(=O)[C@H](CO)NC(=O)CNC(=O)[C@@H]1CCCN1C(=O)[C@H](CO)NC(=O)[C@H](COP(=O)(O)O)NC(=O)[C@H](Cc1ccc(O)cc1)NC(=O)CNC(=O)[C@H](CO)NC(=O)[C@H](CCCNC(=N)N)NC(=O)[C@H](CC(=O)O)NC(=O)CNC(=O)[C@H](CO)NC(=O)CCCCCNC(=O)c1ccc2c(c1)C(=O)OC21c2ccc(O)cc2Oc2cc(O)ccc21)C(N)=O
notes: Tau, seven residues before and after phosphosite 198; numbers count on: P10636-8; source: synthetic peptide, bought: GenScript
Consider B2, for which the affinity in assay [3], expressed as Kd, was 71 µM.

B3: Tau-pS214 peptide (peptide)
chain: GSRSRTP[pS]LPTPPTR
For B3, in assay [2], the equilibrium dissociation constant (Kd) was 16.4 ± 0.9 µM.

B4: FOXO3 pS413 peptide (peptide 1), FAM-labelled (peptide)
peptide: {5FAM-Ahx}-GLMQRSS[pS]FPYTTKG-NH2
SMILES: CSCC[C@H](NC(=O)[C@H](CC(C)C)NC(=O)CNC(=O)CCCCCNC(=O)c1ccc2c(c1)C(=O)OC21c2ccc(O)cc2Oc2cc(O)ccc21)C(=O)N[C@@H](CCC(N)=O)C(=O)N[C@@H](CCCNC(=N)N)C(=O)N[C@@H](CO)C(=O)N[C@@H](CO)C(=O)N[C@@H](COP(=O)(O)O)C(=O)N[C@@H](Cc1ccccc1)C(=O)N1CCC[C@H]1C(=O)N[C@@H](Cc1ccc(O)cc1)C(=O)N[C@H](C(=O)N[C@H](C(=O)N[C@@H](CCCCN)C(=O)NCC(N)=O)[C@@H](C)O)[C@@H](C)O
notes: forkhead box O3 (FOXO3), seven residues before and after phosphosite 413; also called FOXO pS413; source: synthetic peptide, bought: GenScript
With B4, in assay [3], the Kd stood at 1.6 µM.

B5: BAD pS134 peptide (peptide 6), FAM-labelled (peptide)
peptide: {5FAM-Ahx}-KGLPRPK[pS]AGTATQM-NH2
SMILES: CSCC[C@H](NC(=O)[C@H](CCC(N)=O)NC(=O)[C@@H](NC(=O)[C@H](C)NC(=O)[C@@H](NC(=O)CNC(=O)[C@H](C)NC(=O)[C@H](COP(=O)(O)O)NC(=O)[C@H](CCCCN)NC(=O)[C@@H]1CCCN1C(=O)[C@H](CCCNC(=N)N)NC(=O)[C@@H]1CCCN1C(=O)[C@H](CC(C)C)NC(=O)CNC(=O)[C@H](CCCCN)NC(=O)CCCCCNC(=O)c1ccc2c(c1)C(=O)OC21c2ccc(O)cc2Oc2cc(O)ccc21)[C@@H](C)O)[C@@H](C)O)C(N)=O
notes: Bcl-2-associated agonist of cell death (BAD), seven residues before and after phosphosite 134; source: synthetic peptide, bought: GenScript
In turn, B5 had a dissociation constant (Kd) in assay [3] of 15.9 µM.

B6: Notch 4 pS1847 peptide (peptide 3), FAM-labelled (peptide)
peptide: {5FAM-Ahx}-FPRARTV[pS]VSVPPHG-NH2
SMILES: CC(C)[C@H](NC(=O)[C@H](COP(=O)(O)O)NC(=O)[C@@H](NC(=O)[C@@H](NC(=O)[C@H](CCCNC(=N)N)NC(=O)[C@H](C)NC(=O)[C@H](CCCNC(=N)N)NC(=O)[C@@H]1CCCN1C(=O)[C@H](Cc1ccccc1)NC(=O)CCCCCNC(=O)c1ccc2c(c1)C(=O)OC21c2ccc(O)cc2Oc2cc(O)ccc21)[C@@H](C)O)C(C)C)C(=O)N[C@@H](CO)C(=O)N[C@H](C(=O)N1CCC[C@H]1C(=O)N1CCC[C@H]1C(=O)N[C@@H](Cc1c[nH]cn1)C(=O)NCC(N)=O)C(C)C
notes: Notch-4, seven residues before and after phosphosite 1847; also called NOTCH pS1847; source: synthetic peptide, bought: GenScript
On to B6, for which binding in assay [3] was put at a Kd of 70 µM.

B7: Tau pT245 peptide (peptide 2), FAM-labelled (peptide)
peptide: SAKSRLQ[pT]APVPMPD-NH2
modifications: not fully specified (N-terminus)
notes: Tau, seven residues before and after phosphosite 245; numbers count on: P10636-8; source: synthetic peptide, bought: GenScript
For the molecule B7, the dissociation constant Kd came out at 8.5 ± 0.2 µM in assay [2] and 8.6 µM in assay [3].
